Experimental data from patent publication EP1861713B1, “METHOD OF SCREENING PET TRACERS FOR EARLY CANCER THEREAPY MONITORING” (GE Healthcare Limited, priority 2005, dated 2006).
Entries after “also recorded” stand apart in the source; their conditions may differ. Read-outs that look alike come from different tables or passages of the source.

Legend:
MTSs of MCF-7 cell line = assay: Basic [18F]FDG uptake experiments in MTS (competition, inhibition, insulin); format: cell-based, human
Procedure: (§1) • a. Cells of the MCF-7 human breast cancer line (European Collection of Cell Culture) were grown in MEM/EBSS supplemented with 10% FCS, 1mM sodium pyruvate, 2mM L-glutamine, 1% non-essential amino acid and 5% penicillin (Tamro). […] Cells of the BT474 human breast cancer line (American Type Culture Collection) were grown in DMEM supplemented with 10% FCS, 1mM sodium pyruvate, and 5% penicillin (Tamro).
(§2) The MTSs were incubated for 50 min at 37°C with 0.5 ml medium per well containing 3MBq [^18F]FDG[21], and then washed 3x5 min with medium (1 ml/well).
To ensure the physiological validity of [^18F]FDG uptake in MTS, a number of basic experiments were performed: • Temperature dependence of [^18F]FDG uptake. The [^18F]FDG uptake experiments were performed with two different incubation temperatures: 4°C and 37°C. • Competition Experiment. Glucose concentration in the growing culture medium was 5 mM. To perform the competition experiment, unlabeled extra glucose was diluted in the growing culture medium with a concentration of 0mM (for the control group), 5mM, 10mM and 20mM. Culture medium was replaced by glucose/[^18F]FDG-containing culture medium. After 50 min incubation the [^18F]FDG uptake was measured. • Inhibition Experiment. The MTSs were pre-incubated with four different concentrations of an inhibitor of glucose transport, Cytochalasin-B; 0µM (for control group), 10µM, 25µM and 50µM followed by 50 min [^18F]FDG incubation. • Insulin-mediated [^18F]FDG uptake. The MTSs were pre-incubated with or without (control group) 10µM insulin followed by 50 min [^18F]FDG incubation.
It is noticeable that the basic experiments were performed only on MTSs of MCF-7 cell line. In each experimental set-up six MTSs in one 24-well plate were referred to as one group and the experiments were repeated three times.

[1] = test system: MCF-7 human breast cancer line; assay: PET tracer uptake in multicellular tumor spheroids (MTS) after anticancer treatment; format: cell-based; conditions: MCF-7 MTSs; 1 and 10µM; 3 and 5 days of treatment; normalized to control
Procedure: Cells of the MCF-7 human breast cancer line (European Collection of Cell Culture) were grown in MEM/EBSS supplemented with 10% FCS, 1mM sodium pyruvate, 2mM L-glutamine, 1% non-essential amino acid and 5% penicillin (Tamro).
After 1 h the medium was renewed.
In each experimental set-up four MTSs in one 24-well plate were referred to as one group. The groups included control (without treatment agent) and five different treatments with same concentration.
The response to each anticancer treatment was evaluated by measurement of the tracer uptake and total volume of the MTSs after 3 and 5 days of treatment.
Images of MTSs were recorded using a Nikon Colorpix 4500 camera mounted on an inverted Zeiss microscope before Tracer incubation. The acquired data were analyzed by SASDM.
To monitor the effect of each anti-cancer treatment five established PET-tracers; [1-^11C]Acetate, [^11C]Choline, [^11C]Methionine, [^18F]3'-Deoxy-3'-fluorthymifine and 2-[^18F]Fluor-2-deoxyglucose were utilized.
The aggregates were incubated for 30 min (for ^18F-labled tracers) and 50 min (for ^11C-labled tracers) at 37°C with 0.5 ml medium per well containing 3MBq Tracer, and then washed 3x5 min (for ^18F-labled tracers) and 3x3 min (for ^11C-labled tracers) with medium (1 ml/well).
The Tracer-uptake in MTS was defined as: Total uptake = (Act conc.(Bq/ml)of MTS)/(Act conc.(Bq/ml)of reference) [formula]
Each experiment set-up was repeated three times.

[2] = test system: MCF-7 human breast cancer line; assay: [18F]FDG uptake per viable volume of MTS after anticancer treatment (MCF-7); format: cell-based; conditions: MCF-7 MTSs; for [^18F]FDG uptake per viable volume: highest dose of 1 µM
Procedure: as §1, §2
For the MCF-7 cell line, each group included 6 replicates and the experiments were repeated twice.
The response to each anticancer treatment was evaluated by measurement of the [^18F]FDG uptake and viable volume of the MTSs after 2 and 3 days of treatment.

[3] = test system: BT474 human breast cancer line; assay: [18F]FDG uptake per viable volume of MTS after anticancer treatment (BT474); conditions: BT474 MTSs

C=C1[C@@H](C)[C@H]2[C@H](Cc3ccccc3)NC(=O)[C@]23OC(=O)/C=C/[C@H](O)CCC[C@@H](C)C/C=C/[C@H]3[C@@H]1O [Cytochalasin B]
[^18F]FDG uptake (MTSs of MCF-7 cell line; glucose-transport inhibitor added to incubation medium, 10-50µM): significantly decreased | IC50 (MTSs of MCF-7 cell line; pre-incubation 0, 10, 25, 50µM, then 50 min [18F]FDG incubation, read-out: 50% inhibition of [^18F]FDG uptake): 0.012 mM

CC(=O)O[C@@]12CO[C@@H]1C[C@H](O)[C@@]1(C)C(=O)[C@H](O)C3=C(C)[C@@H](OC(=O)[C@H](O)[C@@H](NC(=O)OC(C)(C)C)c4ccccc4)C[C@@](O)([C@@H](OC(=O)c4ccccc4)[C@H]21)C3(C)C [Docetaxel]
CHO-uptake [1]: increase | FLT-uptake [1]: decreased | MET-uptake [1]: increase

COc1cccc2c1C(=O)c1c(O)c3c(c(O)c1C2=O)C[C@@](O)(C(=O)CO)C[C@@H]3O[C@H]1C[C@H](N)[C@H](O)[C@H](C)O1 [Doxorubicin]
ACE-uptake [1]: less decrease | FDG-uptake [1]: less decrease | FLT-uptake [1]: considerable FLT-reduction; also recorded: decreased | reduction of [^18F]FDG uptake per viable volume ([2]; at the highest dose): 25% | [^18F]FDG uptake per viable volume [2]: decreased | [^18F]FDG uptake per viable volume ([3]; at the highest dose): reduced; also recorded: decreased

Cc1ccc(NC(=O)c2ccc(CN3CCN(C)CC3)cc2)cc1Nc1nccc(-c2cccnc2)n1 [Imatinib]
CHO-uptake [1]: decrease | FLT-uptake [1]: increase

CC(=O)O[C@H]1C(=O)[C@@]2(C)[C@H]([C@H](OC(=O)c3ccccc3)[C@]3(O)C[C@H](OC(=O)[C@H](O)[C@@H](NC(=O)c4ccccc4)c4ccccc4)C(C)=C1C3(C)C)[C@]1(OC(C)=O)CO[C@@H]1C[C@@H]2O [Paclitaxel]
ACE-uptake [1]: approximately as non-treated MTSs | FDG-uptake [1]: approximately as non-treated MTSs | FLT-uptake [1]: significant decrease; also recorded: decreased | [^18F]FDG uptake per viable volume (glucose transport) ([2]; 10nM, 100nM, 1µM, 2 and 3 days, overall): more moderate | glucose transport per viable volume ([3]; lowest dose and shorter treatment time): reduced

CC/C(=C(\c1ccccc1)c1ccc(OCCN(C)C)cc1)c1ccccc1 [Tamoxifen]
ACE-uptake [1]: increase | FLT-uptake [1]: decreased | MET-uptake [1]: decrease | [^18F]FDG uptake per viable volume [2]: reduced

OC[C@H]1OC(O)[C@H](O)[C@@H](O)[C@@H]1O (stereo partly drawn) [glucose]
IC50 (MTSs of MCF-7 cell line; Homo sapiens, MCF7, 50 min, unlabeled extra glucose 0, 5, 10, 20mM added to medium (5 mM glucose), 50 min incubation, read-out: concentration inducing a 50% reduction of [^18F]FDG uptake compared to control): 10 mM | [^18F]FDG uptake in MTSs (MTSs of MCF-7 cell line; increasing concentration of glucose added to incubation medium): gradually decreased
